PMC12526154, “Bioactive Compounds Discovery from French Guiana Plant Extracts Through Antitubercular Screening and Molecular Networking” (Plants, 2025)
In brackets after ≈: the same amount, converted by molar mass. Entries after “also recorded” stand apart in the source; their conditions may differ. Like-named read-outs stand apart in the source and are kept apart here.

How the values were obtained:
Mtb H37Rv = settings: cited from earlier work; for MIC90 / MIC (H37Rv): previously reported
Mtb H37Ra = settings: cited from earlier work
[1] = tested on: Mtb H37Ra strain (ATCC 25177); test: Broth microdilution growth inhibition assay against Mtb H37Ra; assay type: cell-based, Mycobacterium tuberculosis; settings: for antitubercular activity (in words): Mtb H37Ra; for MIC90: 90% inhibition of Mtb H37Ra growth
[2] = Resazurin reduction cytotoxicity assay, HepG2; settings: human, HepG2 hepatocellular carcinoma cells
[3] = Resazurin reduction cytotoxicity assay, Raw264.7; settings: mouse
in vitro = settings: human, CC50, BEAS-2B, 24 h exposure, resazurin; mean ± SD (n = 3)
[4] = Resazurin reduction cytotoxicity assay, IMR90; settings: human, IMR-90 fetal lung fibroblasts
[5] = Resazurin reduction cytotoxicity assay, THP-1 macrophages; settings: human
HepG2 cells = test: Resazurin reduction cytotoxicity assay, HepG2; settings: HepG2, 24 h exposure, resazurin; mean ± SD (n = 3)
Mycobacterium smegmatis = tested on: Mycobacterium smegmatis; design: method as in earlier work; settings: ref 33 (Van Puyvelde et al.); cited from earlier work
[6] = Mycobacterium tuberculosis, pure commercial compounds, 50% inhibition of Mtb H37Ra growth, mean ± SD, read-out: MIC50
[7] = Mycobacterium tuberculosis, pure commercial compounds, mean ± SD, read-out: MIC90
[8] = pure commercial compounds, 50% inhibition of Mtb H37Ra growth, mean ± SD, read-out: MIC50
[9] = pure commercial compounds, 50% inhibition of Mtb H37Ra growth, mean ± SD
[10] = pure commercial compounds, mean ± SD

O=c1c(O)c(-c2ccc(O)c(O)c2)oc2cc(O)cc(O)c12 [Quercetin]
MIC90 (Mtb H37Rv; H37Rv): 6.25 µg/mL (≈ 20.7 µM)

O=C1CC(c2ccc(O)cc2)Oc2cc(O)ccc21 (stereo not drawn) [liquitirigenin]
MIC (H37Ra) (Mtb H37Ra; previously reported MIC90): 25 µg/mL (≈ 97.6 µM)

CC(C)C1=C(O)C(=O)C2=C(C=C[C@H]3C(C)(C)CCC[C@]23C)C1=O [6,7-dehydroroyleanone]
MIC90 (Mtb H37Rv; Mtb H37Rv, ref 10 (Baldin et al.)): 31.2 µg/mL (≈ 99.2 µM)

CC1(C)C[C@H](O)C[C@@]2(C)OC(=O)C=C12 [Loliolide]
antitubercular activity (in words) [1]: inactive | MIC50 [1, 6]: > 200 µM | MIC90 [1, 7]: > 200 µM | MIC50 [1, 8]: > 200 µM

O=c1cc(-c2ccc(O)c(O)c2)oc2cc(O)cc(O)c12 [Luteolin]
MIC90 / MIC (H37Rv) (Mtb H37Rv; Mtb H37Rv): 78.12 µg/mL (≈ 273 µM)

COc1cc2oc(-c3ccc(O)c(O)c3)cc(=O)c2c(O)c1OC [Cirsiliol]
CC50 at 24 h [2]: > 250 µM | CC50 at 24 h ([3]; Raw264.7 macrophage cells): 71.2 ± 44.1 µM | CC50 (in vitro): > 250 µM | CC50 at 24 h [4]: 108 ± 44.1 µM | CC50 at 24 h [5]: 11.2 ± 2.7 µM | MIC50 [1, 6]: 80.3 µM (≈ 26.5 µg/mL) | MIC90 [1, 7]: > 200 µM | MIC50 [1, 9]: 80.3 ± 43 µM (≈ 26.5 µg/mL) | MIC90 ([1]; pure commercial compounds, mean ± SD, read-out: MIC90): >200 µM

COc1c(O)cc2oc(-c3ccc(O)cc3)cc(=O)c2c1O [Hispidulin]
CC50 at 24 h [3]: 227 ± 36.7 µM | CC50 (in vitro): > 250 µM | CC50 at 24 h [5]: 21.1 ± 14.5 µM | MIC50 [1, 6]: 54.8 µM (≈ 16.5 µg/mL) | MIC90 [1, 7]: 162 µM (≈ 48.6 µg/mL) | MIC50 [1, 9]: 54.8 ± 25.6 µM (≈ 16.5 µg/mL) | MIC90 [1, 10]: 162 ± 75 µM (≈ 48.6 µg/mL)

COc1ccc(-c2coc3cc(O)ccc3c2=O)cc1 [formononetin]
MIC90 (Mtb H37Ra): 25 µg/mL (≈ 93.2 µM)

O=c1cc(-c2ccc(O)cc2)oc2cc(O)cc(O)c12 [apigenin]
MIC90 / MIC (H37Rv) (Mtb H37Rv; Mtb H37Rv): 70 µg/mL (≈ 259 µM)

CC(C)=CCC[C@](C)(O)[C@@H]1CC=C(C)CC1 [α-bisabolol]
CC50 at 24 h [2]: > 250 µM | CC50 at 24 h ([3]; Raw264.7 macrophage cells): 174 ± 26.2 µM | CC50 (in vitro): > 250 µM | CC50 at 24 h [4]: > 250 µM | CC50 at 24 h ([5]; THP-1-derived macrophages (PMA-differentiated)): > 250 µM | MIC50 ([1]; Mycobacterium tuberculosis): > 200 µM | MIC90 [1, 7]: > 200 µM | MIC50 [1, 8]: >200 µM

C=Cc1c(C)c2cc3nc(c4c5[nH]c(cc6nc(cc1[nH]2)C(C)=C6CC)c(C)c5C(=O)[C@@H]4C(=O)OC)[C@@H](CCC(=O)O)[C@@H]3C [Pheophorbide A]
CC50 (HepG2 cells): no cytotoxicity | CC50 at 24 h [2]: > 84.3 µM | CC50 at 24 h ([3]; Raw264.7 macrophage cells): 20.9 ± 6.5 µM | CC50 (in vitro): ~4.9 µM | CC50 at 24 h [4]: ~11.5 µM | CC50 at 24 h [5]: 1.4 ± 0.8 µM | MIC50 [1, 6]: 10.5 ± 5 µM (≈ 6.22 µg/mL) | MIC90 [1, 7]: 17 ± 7.6 µM (≈ 10.1 µg/mL) | MIC50 [1, 8]: 10.5 µM (≈ 6.22 µg/mL)

C=C[C@]1(C)C=C2[C@H](O)C[C@@H]3C(C)(CCC[C@@]3(C)CO)[C@H]2CC1 (stereo partly drawn) [8(14),15-sandaracopimaradiene-7α,18diol]
MIC90 (Mycobacterium smegmatis): 12 µg/mL (≈ 39.4 µM)

COc1ccc(-c2oc3cc(OC)c(OC)c(O)c3c(=O)c2OC)cc1O [Casticin]
MIC50 [1, 6]: > 200 µM | MIC90 [1, 7]: > 200 µM | MIC50 [1, 8]: >200 µM

CC[C@@H](CO)NCCN[C@@H](CC)CO [Ethambutol, reference compound]
MIC50 [1, 6]: 10.3 ± 4 µM (≈ 2.1 µg/mL) | MIC90 [1, 7]: 17.3 ± 0.96 µM (≈ 3.53 µg/mL)

C/C1=C\CC(C)(C)/C=C/C(=O)/C(C)=C/CC1 [Zerumbone]
CC50 at 24 h [2]: > 250 µM | CC50 at 24 h ([3]; Raw264.7 macrophage cells): 44.5 ± 3.5 µM | CC50 (in vitro): 149 ± 43.2 µM | CC50 at 24 h [4]: 79.8 ± 48.7 µM | CC50 at 24 h [5]: 51.6 ± 31.6 µM | antitubercular activity (in words) [1]: very low to no activity; also recorded: inactive | MIC50 ([1]; Mycobacterium tuberculosis): > 200 µM | MIC90 [1, 7]: > 200 µM | MIC50 [1, 8]: >200 µM

COc1cc(C2c3c(cc(OC)c(O)c3OC)CC(CO)C2CO)cc(OC)c1O (stereo not drawn) [Lyoniresinol]
antitubercular activity (in words) [1]: inactive | MIC50 [1, 6]: > 200 µM | MIC90 [1, 7]: > 200 µM | MIC50 [1, 8]: > 200 µM

C=C1CC[C@H]2O[C@]2(C)CC[C@@H]2[C@@H]1CC2(C)C [Caryophyllene oxide]
antitubercular activity (in words) [1]: very low to no activity; also recorded: inactive | MIC50 [1, 6]: > 200 µM | MIC90 [1, 7]: > 200 µM | MIC50 [1, 8]: > 200 µM

COc1ccc(-c2coc3cc(O)c(OC)cc3c2=O)cc1 [afrormosin]
MIC90 (Mtb H37Ra): 50 µg/mL (≈ 168 µM)

NC[C@H]1O[C@H](O[C@H]2[C@H](O)[C@@H](O[C@H]3O[C@H](CO)[C@@H](O)[C@H](N)[C@H]3O)[C@H](N)C[C@@H]2N)[C@H](O)[C@@H](O)[C@@H]1O [Kanamycin, reference compound]
MIC50 [1, 9]: 3.3 ± 0.40 µM (≈ 1.6 µg/mL) | MIC90 [1, 10]: 7.5 ± 1.7 µM (≈ 3.63 µg/mL)
